Literature values as cited in US20040034086A1, “Combination of an allosteric inhibitor of matrix metalloproteinase-13 with celecoxib or valdecoxib” (priority 2002, published 2004).

For `Cc1onc(-c2ccccc2)c1-c1ccc(S(N)(=O)=O)cc1` [valdecoxib, 4-(5-methyl-3-phenyl-4-isoxazolyl)-benzenesulfonamide], the “Tolerability in clinical studies” value (combined analysis of various clinical studies) is listed as “well tolerated” and the “Overall upper gastrointestinal safety profile (ulcers, perforations, obstructions and GI bleeds)” value (compared with conventional NSAIDs such as ibuprofen, diclofenac and naproxen) is listed as “significantly better than the conventional NSAIDs studied”.
